The record followed here is patent US9963462B2 (priority 2015, dated 2018).

Usually IC50 stands for the midpoint of a concentration-inhibition curve.

For test [1], the target named is SNAP-hSPR (sepiapterin reductase, SPR) (Homo sapiens, UniProt P35270). The test can be described thus: biochemical. It counts as binding. The following applies: terbium labelled SNAP-hSPR / SSZ labelled SNAP-EGFP; read-out: hTR-FRET IC50.
Description: TR-FRET Assay: A TR-FRET (homogeneous, time-resolved, fluorescence resonance energy transfer) assay was used to assess activity of compounds following standard assay conditions. […] Compounds were screened at different concentrations and IC50 values calculated.
Terbium labelled SNAP-hSPR and SSZ (sulfasalazine) labelled SNAP-EGFP were used as the protein pair in this assay. Compounds were screened at different concentrations, and 1050 and Kd values calculated.
Test [2] relates to BH4 levels in SK-N-BE (2) cells. The test can be described thus: SKN-N-BE (2) cellular assay, BH4 levels by LC-MS. Type of test: cell-based. The following applies: Homo sapiens, SKNBE2, read-out: SK-N-BE(2) IC50, SK-N-BE (2) cells, BH4 levels by LC-MS.
The test system of test [3] is BH4 production in human peripheral blood mononuclear cells (PBMCs). The test can be described thus: hPBMC assay, inhibition of BH4 production by LC-MS (anti-CD3/anti-CD28 stimulated). It counts as cell-based. The following applies: PBMC, read-out: hPBMC IC50.
Protocol: hPBMC Assay: PBMCs were either purchased or isolated from fresh human blood and used either as a fresh preparation or frozen for later use. The assay system was prepared by pre-treating the assay plates overnight with a solution containing anti-human CD3 antibody. Human PBMCs were suspended in assay medium and plated into the assay plates at a density of 1-4×10^5 cells per well. The desired concentration of the test compound was added to each well. A solution of human anti-CD28 antibody was also added to each well. Plates were incubated for 12-48 hours at 37° C. and 5% CO2. Assay plates were centrifuged for 5-15 minutes at 1-3000 RMP and supernatants were removed. The cells were lysed, sealed and used directly or frozen at −80° C. LC-MS was used to quantify the amount of inhibition of BH4 production.
PBMCs were either purchased or isolated from fresh human blood and used either as a fresh preparation or frozen for later use. The assay system was prepared by pre-treating the assay plates overnight with a solution containing anti-human CD3 antibody. Human PBMCs were suspended in assay medium and plated into the assay plates at a density of 1-4×10^5 cells per well. The desired concentration of the test compound was added to each well. A solution of human anti-CD28 antibody was also added to each well. Plates are incubated for 12-48 hours at 37° C. and 5% CO2. Assay plates were centrifuged for 5-15 minutes at 1-3000 RMP and supernatants were removed. The cells were lysed, sealed and used directly or frozen at −80° C.

Chain of SNAP-hSPR (sepiapterin reductase, SPR) (P35270 whole entry): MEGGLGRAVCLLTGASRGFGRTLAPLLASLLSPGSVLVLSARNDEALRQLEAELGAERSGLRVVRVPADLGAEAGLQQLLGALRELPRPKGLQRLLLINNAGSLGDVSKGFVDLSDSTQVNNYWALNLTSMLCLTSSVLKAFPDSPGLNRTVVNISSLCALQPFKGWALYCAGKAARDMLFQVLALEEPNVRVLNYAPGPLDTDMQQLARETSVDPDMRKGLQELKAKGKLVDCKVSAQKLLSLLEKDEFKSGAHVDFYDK

Consider `Cc1c(C(=O)N2CCC(C3CC3)CC2)cnn1-c1nc2c(c(=O)[nH]1)CCC2` [Q-0451], for which the IC50 in test [1] turned out to be 2 nM; in test [2], 19 nM; in test [3], 13 nM.
For `Cc1c(C(=O)N2CCC(C)(C#N)CC2)cnn1-c1nc2c(c(=O)[nH]1)CCC2` [Q-0518], the IC50 in test [1] is 3 nM; in test [2] it was 500 nM; in test [3], 32 nM.
As to `Cc1c(C(=O)N2CCC(C(F)(F)F)CC2)cnn1-c1nc2[nH]ccc2c(=O)[nH]1` [Q-0427], the IC50 in test [1] worked out at 9 nM; in test [2], 3100 nM; in test [3] it was 1100 nM.
For `Cc1c(C(=O)N2CCC(CC#N)CC2)cnn1-c1nn2cccc2c(=O)[nH]1` [Q-0825], in that order: 2 nM, 400 nM and 150 nM.
The corresponding values for `Cc1c(C(=O)N2CCN(CC#N)CC2)cnn1-c1nn2cccc2c(=O)[nH]1` [Q-0918] are 2 nM, 600 nM and 120 nM.
The corresponding values for `Cc1c(C(=O)N2CCC3(CC3)C2)cnn1-c1nn2cccc2c(=O)[nH]1` [Q-0921] are 2 nM, 400 nM and 47 nM.
Turning to `Cc1c(C(=O)N2CCN(C(C)C(F)(F)F)CC2)cnn1-c1nc2c(c(=O)[nH]1)CCC2` (stereo not drawn) [Q-1054], the IC50 in test [1] was 1 nM; in test [2], 28 nM; in test [3], 60 nM.
As for `O=C(c1cnn(-c2nn3cccc3c(=O)[nH]2)c1)N1CCN2CCC[C@@H]2C1` [Q-0703], the IC50 in test [1] is 4 nM; in test [2] it was 600 nM; in test [3] it was 190 nM.
With `Cc1c(C(=O)N2CCC(C(C)C#N)CC2)cnn1-c1nn2cccc2c(=O)[nH]1` (stereo not drawn) [Q-0849], the figures for the IC50 in test [1], in test [2] and in test [3] were 1 nM, 300 nM and 44 nM, respectively.
With `Cc1c(C(=O)N2CC3(CCN(C(=O)OC(C)(C)C)CC3)C2)cnn1-c1nn2cccc2c(=O)[nH]1` [Q-0772], the concentration for half-maximal inhibition (IC50) in test [1] is 1 nM; in test [2], 200 nM; in test [3], 72 nM.
With `Cc1c(C(=O)N2CCC3(CC2)CC3C(=O)N2CCCCC2)cnn1-c1nc2c(c(=O)[nH]1)CCC2` (stereo not drawn) [Q-1058], the values for the IC50 in test [1], in test [2] and in test [3] were 2 nM, 93 nM and 150 nM, respectively.
Take `Cc1c(C(=O)N2CCC(c3nccs3)CC2)cnn1-c1nn2cccc2c(=O)[nH]1` [Q-0969]: the IC50 in test [1] came out at 1 nM; in test [2], 200 nM; in test [3] it was 160 nM.
Take `Cc1c(C(=O)N2CCC(OCC(F)(F)F)CC2)cnn1-c1nn2cccc2c(=O)[nH]1` [Q-0784]: the IC50 was found to be 1 nM in test [1], 300 nM in test [2] and 120 nM in test [3].
For `Cc1c(C(=O)N2CCC(C(=O)N3CCCC3)(C(F)(F)F)CC2)cnn1-c1nn2cccc2c(=O)[nH]1` [Q-1046], the IC50 in test [1] turned out to be 1 nM; in test [2] it was 100 nM; in test [3] it was 83 nM.
The corresponding values for `Cc1c(C(=O)N2CCC(C(F)(F)F)CC2)cnn1-c1nc2ccsc2c(=O)[nH]1` [Q-0379] are 2 nM, 84 nM and 280 nM.
Consider `Cc1c(C(=O)N2CC(N3CCC(F)(F)C3)C2)cnn1-c1nn2cccc2c(=O)[nH]1` [Q-0812], for which the IC50 turned out to be 3 nM in test [1], 1000 nM in test [2] and 150 nM in test [3].
The corresponding values for `Cc1c(C(=O)N2CCC3(CC2)CC3C(=O)N2CCCC2)cnn1-c1nn2cccc2c(=O)[nH]1` (stereo not drawn) [Q-0911] are 2 nM, 400 nM and 110 nM.
As for `Cc1c(C(=O)N2CCC(n3cccc3)CC2)cnn1-c1nn2cccc2c(=O)[nH]1` [Q-0941], the 50% inhibitory concentration (IC50) in test [1] came to 1 nM; in test [2], 300 nM; in test [3], 13 nM.
For `Cc1c(C(=O)N2CCC3(CC2)CC3)cnn1-c1nc2c(c(=O)[nH]1)CCC2` [Q-0635], in that order: 2 nM, 100 nM and 54 nM.
With `Cc1c(C(=O)N2CCC(C#N)(CC(F)(F)F)CC2)cnn1-c1nn2cccc2c(=O)[nH]1` [Q-0986], the IC50 in test [1] was 2 nM; in test [2] it was 700 nM; in test [3], 110 nM.
Turning to `Cc1c(C(=O)N2CCN(CC(F)(F)F)CC2)cnn1-c1nn2cccc2c(=O)[nH]1` [Q-0760], the IC50 in test [1] is 1 nM; in test [2], 400 nM; in test [3] it was 75 nM.
The corresponding values for `Cc1c(C(=O)N2CCC3(CC2)CC(F)C3)cnn1-c1nn2cccc2c(=O)[nH]1` [Q-0998] are 1 nM, 300 nM and 92 nM.
For `Cc1c(C(=O)N2CC3(CN(CC(F)(F)F)C3)C2)cnn1-c1nn2cccc2c(=O)[nH]1` [Q-0891], in that order: 4 nM, 900 nM and 240 nM.
The corresponding values for `O=C(c1cnn(-c2nc3c(c(=O)[nH]2)COC3)c1)N1CCC(C(F)(F)F)CC1` [Q-0453, 2-{4-[4-(trifluoromethyL)piperidine-1-carbonyl]-1H-pyrazol-1-yl}-3H,4H,5H,7H-furo[3,4-d]pyrimidin-4-one] are 6 nM, 1600 nM and 1300 nM.
Take `Cc1c(C(=O)N2CCC3(CC2)CC3C(=O)N2CCCC2)cnn1-c1nc2c(c(=O)[nH]1)CCC2` (stereo not drawn) [Q-1061]: the figures for the IC50 in test [1], in test [2] and in test [3] were 3 nM, 400 nM and 210 nM, respectively.
For `Cc1c(C(=O)N2CCN(CC(F)(F)F)CC2)nnn1-c1nn2cccc2c(=O)[nH]1` [Q-1007], in that order: 1 nM, 500 nM and 120 nM.
The corresponding values for `Cc1c(C(=O)N2CCC(C(C)(O)C(F)(F)F)CC2)cnn1-c1nn2cccc2c(=O)[nH]1` (stereo not drawn) [Q-0782] are 1 nM, 100 nM and 38 nM.
For `Cc1c(C(=O)N2CC[C@H](N(C)C(=O)OC(C)(C)C)C2)cnn1-c1nn2cccc2c(=O)[nH]1` [Q-0851], in that order: 2 nM, 500 nM and 130 nM.
As for `Cc1c(C(=O)N2CC(C)(NC(=O)OC(C)(C)C)C2)cnn1-c1nn2cccc2c(=O)[nH]1` [Q-0867], the IC50 in test [1] came to 2 nM; in test [2], 400 nM; in test [3], 70 nM.
As to `Cc1c(C(=O)N2CC3(CCCC3)C2)cnn1-c1nn2cccc2c(=O)[nH]1` [Q-0813], the IC50 in test [1] was found to be 1 nM; in test [2], 100 nM; in test [3] it was 65 nM.
As to `Cc1c(C(=O)N2CCC(C(F)F)CC2)cnn1-c1nc2c(c(=O)[nH]1)CCC2` [Q-1049], the IC50 in test [1] came to 2 nM; in test [2] it was 72 nM; in test [3] it was 25 nM.
For `Cc1c(C(=O)N2CC3(C2)CC(F)(F)C3)nnn1-c1nn2cccc2c(=O)[nH]1` [Q-1024], in that order: 1 nM, 300 nM and 56 nM.
For `Cc1c(C(=O)N2CC3C(C2)C3(C)C)cnn1-c1nc2c(c(=O)[nH]1)CCC2` (stereo not drawn) [Q-1048], in that order: 1 nM, 200 nM and 50 nM.
The corresponding values for `Cc1c(C(=O)N2CCC(c3nc(-c4ccccc4)cs3)CC2)cnn1-c1nc2c(c(=O)[nH]1)CCC2` [Q-1056] are 3 nM, 16 nM and 55 nM.
For `Cc1cc(=O)[nH]c(-n2ncc(C(=O)N3CCc4ccccc4C3)c2C)n1` [Q-0279, 6-methyl-2-[5-methyl-4-(1,2,3,4-tetrahydroisoquinoline-2-carbonyl)-1H-pyrazol-1-yl]-3,4-dihydropyrimidin-4-one], the figures for the IC50 in test [1], in test [2] and in test [3] were 7 nM, 1000 nM and 2200 nM, respectively.
The corresponding values for `Cc1c(C(=O)N2CCc3ccccc3C2)cnn1-c1nc2cc[nH]c2c(=O)[nH]1` [Q-0378] are 30 nM, 4100 nM and 740 nM.
For the compound `Cc1c(C(=O)N2CCN(C(=O)OC(C)(C)C)CC2)cnn1-c1nn2cccc2c(=O)[nH]1` [Q-0750], the IC50 in test [1] is 3 nM; in test [2], 500 nM; in test [3] it was 180 nM.
For `Cc1c(C(=O)N2CCC(C(O)(C(F)(F)F)C(F)(F)F)CC2)cnn1-c1nn2cccc2c(=O)[nH]1` [Q-0721], in that order: 1 nM, 35 nM and 26 nM.
Take `Cc1c(C(=O)N2CCC(C#N)(c3ccccn3)CC2)cnn1-c1nn2cccc2c(=O)[nH]1` [Q-0952]: the figures for the half-inhibitory concentration (IC50) in test [1], in test [2] and in test [3] were 1 nM, 300 nM and 83 nM, respectively.
For `Cc1c(C(=O)N2CCC(C(O)C(F)(F)F)CC2)cnn1-c1nn2cccc2c(=O)[nH]1` (stereo not drawn) [Q-1066], in that order: 1 nM, 300 nM and 82 nM.
For `CCC(O)(C1CCN(C(=O)c2cnn(-c3nn4cccc4c(=O)[nH]3)c2C)CC1)C(F)(F)F` (stereo not drawn) [Q-1052], in that order: 1 nM, 44 nM and 83 nM.
Regarding `CCC(C1CCN(C(=O)c2cnn(-c3nn4cccc4c(=O)[nH]3)c2C)CC1)C(F)(F)F` (stereo not drawn) [Q-1051], the IC50 in test [1] is 1 nM; in test [2] it was 53 nM; in test [3], 27 nM.
`O=C(c1cnn(-c2nn3c(F)ccc3c(=O)[nH]2)c1)N1CCC(C(F)(F)F)CC1` [Q-0525, 7-fluoro-2-(4-(4-(trifluoromethyl)piperidine-1-carbonyl)-1H-pyrazol-1-yl)pyrrolo[1,2-f][1,2,4]triazin-4(3H)-one]: the IC50 is 1 nM in test [1], 19 nM in test [2] and 24 nM in test [3].
For `CCC(C#N)C1(F)CCN(C(=O)c2cnn(-c3nn4cccc4c(=O)[nH]3)c2C)CC1` (stereo not drawn) [Q-1047], in that order: 1 nM, 200 nM and 66 nM.
